The record followed here is patent US9969716B2, “Indole derivatives as modulators of methyl modifying enzymes, compositions and uses thereof” (Constellation Pharmaceuticals, Inc., priority 2013, dated 2018).

Experiment [1] addresses EZH2 (Homo sapiens, UniProt Q15910). In words: EZH2 assay (rPRC2, 3H SAM methyl transfer to biotinylated oligonucleosomes, FlashPlate). In kind it is biochemical. The protocol:
(§1) EZH2 Assay: Assays were carried out by mixing rPRC2 together with biotinylated oligonucleosome substrates in the presence of the radio-labeled enzyme co-factor, S-adenosyl-L-methionine (^3H SAM) (Perkin Elmer) and monitoring the enzymatically mediated transfer of tritiated methyl groups from ^3H SAM to histone lysine residues. The amount of resulting tritiated methyl histone product was measured by first capturing the biotinylated oligonucleosomes in streptavidin (SAV) coated FlashPlates (Perkin Elmer), followed by a wash step to remove un-reacted ^3H SAM, and then counting on a TopCount NXT 384 well plate scintillation counter (Perkin Elmer). The final assay conditions for EZH2 were as follows: 50 mM Tris Buffer pH 8.5, 1 mM DTT, 69 μM Brij-35 detergent, 5.0 mM MgCl2, 0.1 mg/mL BSA, 0.2 μM ^3H SAM, 0.2 μM biotinylated oligonucleosomes, 3.6 μM H3K27me3 peptide and 2 nM EZH2.
(§2) A 12.5 μL volume of the HMT enzyme, H3K27me3 peptide and oligonucleosome substrate in assay buffer was added to each well of the assay plate using a Multidrop Combi (ThermoFisher). Compounds were pre-incubated with the enzyme for 20 min, followed by initiation of the methyltransferase reaction by addition of 12.5 μL of ^3H SAM in assay buffer (final volume=25 μL). The final concentrations of compounds ranged from a top default concentration of 80 μM down to 0.16 μM in ten 2-fold dilution steps. Reactions were carried out for 60 minutes and quenched with 20 μL per well of 1.96 mM SAH, 50 mM Tris pH 8.5, 200 mM EDTA. Stopped reactions were transferred to SAV coated Flashplates (Perkin Elmer), incubated for 120 min, washed with a plate washer, and then read on the TopCount NXT (1.0 min/well) to measure the amount of methyl histone product formed during the reaction.

Experiment [2] concerns the target Y641N EZH2 (Homo sapiens, UniProt Q15910, Y641N). In words: Y641N EZH2 assay (as EZH2 assay, H3K27Me2 oligonucleosomes as substrate). In kind it is biochemical. Here is the method:
as §1, §2

Experiment [3] deals with H3K27me3 mark in HeLa cells. In words: H3K27me3 Alpha Hela Assay (AlphaLISA). In kind it is cell-based. The settings on record: Homo sapiens, 72 hrs, read-out: EZH2_Cell_H3K27me3_Alpha_HeLa (EC50_K27me3). The protocol: Ten different doses of each test compound (in a series of 3-fold dilutions) were plated in duplicate 384-well tissue culture treated plates (Catalog #781080; Greiner Bio One; Monroe, N.C.). Hela cells grown in culture were trypsinized and counted using a Countess® cell counter (Catalog # C10281; Life Technologies, Grand Island, N.Y.). Cell were diluted to 67,000 cells per mL in 10% DMEM (Catalog #10569-010 Life Technologies, Grand Island, N.Y.) and 15 μL (1,000 cells) were plated into each well using the Biotek MicroFlo™ Select Dispenser (BioTek Instruments, Inc. Vermont, USA),) of the 384-well plate. Plates were incubated at 37° C./5% CO2 for 72 hrs. One of the duplicate plates was processed for HeLa assay and the other for viability.
To the plate processed for AlphaLISA was added 5 μL per well Cell-Histone Lysis buffer (1λ) (Catalog # AL009F1 Perkin Elmer; Waltham, Mass.) and the plate was incubated at RT for 30 minutes on a plate shaker with low speed (Model#4625-Q Thermo Scientific; Waltham, Mass.). Then, 10 μL per well Histone Extraction buffer (catalog # AL009F2; Perkin Elmer; Waltham, Mass.) was added and the plate further incubated at RT for 20 min on plate shaker with low speed. To each well was then added 10 μL per well of a 5× mix of anti-K27me3 acceptor beads plus Biotinylated anti-Histone H3 (C-ter) Antibody (diluted to 3 nM final) (Catalog #AL118 Perkin Elmer; Waltham, Mass.). Dilution of the acceptor beads and then anti-Histone H3 was with 1× Histone Detection buffer (Catalog # AL009F3 Perkin Elmer; Waltham, Mass.) which was produced diluted from the 10× stock provided. The plate was sealed with an aluminum plate sealer and incubated at 23° C. for 60 min. We then added 10 μL 5× solution of Streptavidin Donor beads (Catalog #6760002 Perkin Elmer; Waltham, Mass.) (20 μg/mL final in 1× Histone Detection Buffer), sealed the plate with Aluminum plate sealer and incubated at 23° C. for 30 min. The plates were then read using an EnVision-Alpha Reader (model #2104 Perkin Elmer; Waltham, Mass.).
Data from both assays was analyzed using Assay Assistant (Constellation Pharmaceuticals In-house product) and Activity Base (IDBS Ltd, Surrey, UK) template. Data files were imported to Assay Assistant and assay conditions were specified. A unique Analysis ID was created and the data files exported to Activity Base. An analysis template was created on Activity Base to measure dose-dependent inhibition of H3K27me3 mark and cell viability respectively. Readout of DMSO wells were used to normalize the data. Resulting curves were fitted using Activity base software Model 205 (IDBS Ltd, Surrey, UK). The data was checked for quality, validated and integrated in excel format using SARview (IDBS Ltd, Surrey, UK).

Setting [4] is: 2 nM EZH2, 0.2 μM 3H SAM, 0.2 μM biotinylated oligonucleosomes, 3.6 μM H3K27me3 peptide, 60 min, read-out: EZH2_nuc_BSA_Brij_1.5 (IC50).
The mark [5] stands for this setting: Y641N EZH2, reconstituted H3K27Me2 oligonucleosomes as substrate, read-out: EZH2_Y641N_nuc_BSA_Brij_6.0 (IC50).

Like-named read-outs stand apart in the source and are kept apart here. A value given as a limit tells only on which side of the number the result lay.

Broadly, the IC50 is the concentration needed to halve the response being measured.

Y641N EZH2, sequence (Q15910 whole entry Y641N): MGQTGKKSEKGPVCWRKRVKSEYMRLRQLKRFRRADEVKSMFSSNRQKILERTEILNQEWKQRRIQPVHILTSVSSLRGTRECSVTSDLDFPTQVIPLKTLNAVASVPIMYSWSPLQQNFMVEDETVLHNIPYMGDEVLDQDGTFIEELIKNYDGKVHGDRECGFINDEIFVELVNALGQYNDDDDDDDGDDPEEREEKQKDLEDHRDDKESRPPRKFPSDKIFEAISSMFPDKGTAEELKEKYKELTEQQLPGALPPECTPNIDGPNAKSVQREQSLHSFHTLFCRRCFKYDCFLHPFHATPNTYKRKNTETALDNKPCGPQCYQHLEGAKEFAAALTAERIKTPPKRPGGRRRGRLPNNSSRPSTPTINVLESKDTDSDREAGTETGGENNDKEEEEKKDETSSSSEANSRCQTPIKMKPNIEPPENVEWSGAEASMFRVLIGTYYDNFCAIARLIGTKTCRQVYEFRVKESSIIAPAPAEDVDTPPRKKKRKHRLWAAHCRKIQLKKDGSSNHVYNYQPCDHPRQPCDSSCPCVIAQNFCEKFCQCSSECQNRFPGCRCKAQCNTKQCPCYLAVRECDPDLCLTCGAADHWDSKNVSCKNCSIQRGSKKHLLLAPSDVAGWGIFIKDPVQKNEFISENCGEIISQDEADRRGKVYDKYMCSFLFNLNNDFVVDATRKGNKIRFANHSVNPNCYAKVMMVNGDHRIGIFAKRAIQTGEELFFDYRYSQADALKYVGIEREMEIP
Y641N EZH2, sequence (O75530 whole entry partner): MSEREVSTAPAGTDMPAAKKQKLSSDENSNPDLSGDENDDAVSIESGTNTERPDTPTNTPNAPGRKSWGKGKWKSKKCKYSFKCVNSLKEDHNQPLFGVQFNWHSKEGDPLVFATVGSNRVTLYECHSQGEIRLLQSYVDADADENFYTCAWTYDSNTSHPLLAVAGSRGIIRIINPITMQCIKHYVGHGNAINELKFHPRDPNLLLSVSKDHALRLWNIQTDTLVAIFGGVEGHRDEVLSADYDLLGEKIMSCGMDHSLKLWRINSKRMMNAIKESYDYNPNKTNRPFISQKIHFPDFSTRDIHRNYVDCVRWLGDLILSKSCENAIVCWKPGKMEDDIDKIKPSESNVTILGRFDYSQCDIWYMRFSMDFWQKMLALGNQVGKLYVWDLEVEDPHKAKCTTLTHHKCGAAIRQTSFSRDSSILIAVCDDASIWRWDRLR
Y641N EZH2, sequence (Q15022 whole entry partner): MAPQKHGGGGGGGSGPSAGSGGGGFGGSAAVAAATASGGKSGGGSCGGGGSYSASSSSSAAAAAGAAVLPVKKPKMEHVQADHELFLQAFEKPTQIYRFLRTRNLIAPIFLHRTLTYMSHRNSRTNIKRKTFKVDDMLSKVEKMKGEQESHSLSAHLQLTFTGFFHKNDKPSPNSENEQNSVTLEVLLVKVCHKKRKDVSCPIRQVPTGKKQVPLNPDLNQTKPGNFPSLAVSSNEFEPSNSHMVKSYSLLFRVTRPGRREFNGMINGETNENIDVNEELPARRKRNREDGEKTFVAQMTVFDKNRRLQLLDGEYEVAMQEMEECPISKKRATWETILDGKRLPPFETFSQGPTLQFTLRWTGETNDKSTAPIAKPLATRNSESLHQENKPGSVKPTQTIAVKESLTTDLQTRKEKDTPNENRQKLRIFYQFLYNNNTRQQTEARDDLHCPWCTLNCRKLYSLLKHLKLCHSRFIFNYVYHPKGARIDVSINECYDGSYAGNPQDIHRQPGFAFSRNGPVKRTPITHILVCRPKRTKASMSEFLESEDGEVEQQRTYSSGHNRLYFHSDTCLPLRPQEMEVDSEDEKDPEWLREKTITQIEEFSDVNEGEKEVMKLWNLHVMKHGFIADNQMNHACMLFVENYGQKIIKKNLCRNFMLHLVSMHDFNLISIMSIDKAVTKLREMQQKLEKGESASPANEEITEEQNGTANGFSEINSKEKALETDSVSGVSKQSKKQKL
EZH2, sequence (Q15910 whole entry): as the sequence (Q15910 whole entry Y641N) above, with N641Y counted along it
EZH2, sequence (O75530 whole entry partner): as the sequence (O75530 whole entry partner) above
EZH2, sequence (Q15022 whole entry partner): as the sequence (Q15022 whole entry partner) above

Consider `COc1cc(C)[nH]c(=O)c1CNC(=O)c1c(C)n([C@H](C)C2CCN(CC(C)(F)F)CC2)c2ccccc12` [Compound 101, (R)-1-(1-(1-(2,2-difluoropropyl)piperidin-4-yl)ethyl)-N-((4-methoxy-6-methyl-2-oxo-1,2-dihydropyridin-3-yl)methyl)-2-methyl-1H-indole-3-carboxamide], for which the IC50 in experiment [1] and in experiment [2] was less than 100 nM each time. In experiment [3], the EC50 is less than 400 nM.
As to `COc1cc(C)[nH]c(=O)c1CNC(=O)c1c(C)n([C@H](C)C2CCN(CC3(C(F)(F)F)CC3)CC2)c2ccccc12` [Compound 102], the IC50 in experiment [1] and in experiment [2] was less than 100 nM each time. The EC50 in experiment [3] was less than 400 nM.
Consider `COc1cc(C)[nH]c(=O)c1CNC(=O)c1c(C)n([C@H](C)C2CCN(CC(F)(F)C(F)F)CC2)c2ccccc12` [Compound 103], for which the IC50 in experiment [1] and in experiment [2] was less than 100 nM each time. The EC50 in experiment [3] was less than 400 nM.
For the compound `COc1cc(C)[nH]c(=O)c1CNC(=O)c1c(C)n([C@H](C)C2CCN(C(=O)C3(C(F)(F)F)CCC3)CC2)c2ccccc12` [Compound 104], the IC50 in experiment [1] and in experiment [2] was less than 100 nM throughout. The EC50 in experiment [3] is less than 400 nM.
Take `Cc1cc(Cl)c(CNC(=O)c2c(C)n([C@H](C)C3CCN(CC(C)(F)F)CC3)c3ccccc23)c(=O)[nH]1` [Compound 105]: the IC50 in experiment [1] and in experiment [2] was less than 100 nM each time. For the same compound, in experiment [3], the EC50 is less than 400 nM.
Regarding `Cc1cc(Cl)c(CNC(=O)c2c(C)n([C@H](C)C3CCN(CC(F)F)CC3)c3ccccc23)c(=O)[nH]1` [Compound 106], the IC50 in experiment [1] and in experiment [2] was less than 100 nM in each case. Also, the EC50 in experiment [3] was less than 400 nM.
Consider `CCS(=O)(=O)N1CCC([C@@H](C)n2c(C)c(C(=O)NCc3c(Cl)cc(C)[nH]c3=O)c3ccccc32)CC1` [Compound 107], for which the IC50 in experiment [1] and in experiment [2] was less than 100 nM throughout. Further, the EC50 in experiment [3] is less than 400 nM.
`COc1cc(C)[nH]c(=O)c1CNC(=O)c1c(C)n([C@H](C)C2CCN(Cc3cc(F)cc(F)c3)CC2)c2ccccc12` [Compound 109, (R)-1-(1-(1-(3,5-difluorobenzyl)piperidin-4-yl)ethyl)-N-((4-methoxy-6-methyl-2-oxo-1,2-dihydropyridin-3-yl)methyl)-2-methyl-1H-indole-3-carboxamide]: the IC50 in experiment [1] and in experiment [2] was less than 100 nM throughout. Moreover, the EC50 in experiment [3] was less than 400 nM.
In the case of `Cc1cc(OC(F)F)c(CNC(=O)c2c(C)n([C@H](C)C3CCN(CC(F)F)CC3)c3ccccc23)c(=O)[nH]1` [Compound 110], the IC50 in experiment [1] and in experiment [2] was less than 100 nM each time. For the same compound, the EC50 in experiment [3] was less than 400 nM.
As for `Cc1cc(OC(F)F)c(CNC(=O)c2c(C)n([C@H](C)C3CCN(CC(C)(F)F)CC3)c3ccccc23)c(=O)[nH]1` [Compound 111], the IC50 in experiment [1] and in experiment [2] was less than 100 nM throughout. In experiment [3], the EC50 is less than 400 nM.
In the case of `Cc1cc(Cl)c(CNC(=O)c2c(C)n([C@H](C)C3CCN(C4COC4)CC3)c3ccccc23)c(=O)[nH]1` [Compound 112], the IC50 in experiment [1] and in experiment [2] was less than 100 nM in each case. Further, in experiment [3], the EC50 was less than 400 nM.
`COc1cc(C)[nH]c(=O)c1CNC(=O)c1c(C)n([C@H](C)C2CCN(CC(F)(F)C(F)(F)F)CC2)c2ccccc12` [Compound 113]: the IC50 in experiment [1] and in experiment [2] was less than 100 nM each time. Also, in experiment [3], the EC50 was less than 400 nM.
In the case of `COc1cc(C)[nH]c(=O)c1CNC(=O)c1c(C)n([C@H](C)C2CCN(C(=O)C3(C(F)(F)F)CC3)CC2)c2ccccc12` [Compound 115], the 50% inhibitory concentration (IC50) in experiment [1] and in experiment [2] was less than 100 nM in each case. In addition, in experiment [3], the EC50 was less than 400 nM.
For the compound `COc1cc(C)[nH]c(=O)c1CNC(=O)c1c(C)n([C@H](C)C2CCN(CC(C)(C)F)CC2)c2ccccc12` [Compound 116], the IC50 in experiment [1] and in experiment [2] was less than 100 nM in each case. The EC50 in experiment [3] was less than 400 nM.
Regarding `Cc1cc(C)c(CNC(=O)c2c(C)n([C@H](C)C3CCN(S(=O)(=O)C4CNC4)CC3)c3ccccc23)c(=O)[nH]1` [Compound 171], the 50% inhibitory concentration (IC50) in experiment [1] (setting [4]) and in experiment [2] (setting [5]) was less than 100 nM in each case.
Consider `Cc1cc(C)c(CNC(=O)c2c(C)n([C@H](C)C3CCN(S(=O)(=O)C4CCNCC4)CC3)c3ccccc23)c(=O)[nH]1` [Compound 172], for which the IC50 in experiment [1] (setting [4]) and in experiment [2] (setting [5]) was less than 100 nM in each case.
`COC(C)(C)CN1CCC([C@@H](C)n2c(C)c(C(=O)NCc3c(Cl)cc(C)[nH]c3=O)c3ccccc32)CC1` [Compound 262] showed an IC50 in experiment [1] of less than 100 nM. Moreover, in experiment [3], the EC50 was less than 400 nM.
In the same order, the values of `COc1cc(C)[nH]c(=O)c1CNC(=O)c1c(C)n([C@H](C)C2CCN(Cc3cccc(F)c3)CC2)c2ccccc12` [Compound 263] are less than 100 nM and less than 400 nM.
In the same order, the values of `COc1cc(C)[nH]c(=O)c1CNC(=O)c1c(C)n([C@H](C)C2CCN(Cc3ccnc(C#N)c3)CC2)c2ccccc12` [Compound 264] are less than 100 nM and less than 400 nM.
The compound `COc1cc(C)[nH]c(=O)c1CNC(=O)c1c(C)n([C@H](C)C2CCN(C(=O)C3(F)CCC3)CC2)c2ccccc12` [Compound 265] yielded an IC50 in experiment [1] of less than 100 nM. Also, in experiment [3], the EC50 is less than 400 nM.
In the same order, the values of `COc1cc(C)[nH]c(=O)c1CNC(=O)c1c(C)n([C@H](C)C2CCN(Cc3cc(C)ncn3)CC2)c2ccccc12` [Compound 266] are less than 100 nM and less than 400 nM.
The corresponding values for `COc1cc(C)[nH]c(=O)c1CNC(=O)c1c(C)n([C@H](C)C2CCN(Cc3cccc(C)n3)CC2)c2ccccc12` [Compound 267] are less than 100 nM and less than 400 nM.
The corresponding values for `COc1cc(C)[nH]c(=O)c1CNC(=O)c1c(C)n([C@H](C)C2CCN(Cc3cnccc3C#N)CC2)c2ccccc12` [Compound 268] are less than 100 nM and less than 400 nM.
In turn, `COc1cc(C)[nH]c(=O)c1CNC(=O)c1c(C)n([C@H](C)C2CCN(C(=O)C3CCOCC3)CC2)c2ccccc12` [Compound 269] yielded an IC50 in experiment [1] of less than 100 nM. Also, the EC50 in experiment [3] was in the range of 400 to 2000 nM.
The corresponding values for `COc1cc(C)[nH]c(=O)c1CNC(=O)c1c(C)n([C@H](C)C2CCN(C(=O)C3CCOC3)CC2)c2ccccc12` (stereo partly shown) [Compound 270] are less than 100 nM and greater than 2000 nM.
